Starred links: 1 amine or outer side, 2 acyl side, 3 side chain; linkers in the order of their positions; H or OH if unused. Positions of bridges follow the written chain, without caps; N, C: chain ends. Non-standard residues stand in square brackets, D forms with d. Residues, ends and D or L forms follow the SMILES beside them. Chains are numbered I, II in the order given. *: point of attachment. Orn((CH2)6NH2) = O=C([C@H](CCCNCCCCCCN[*:3])N[*:1])[*:2]; X3 = O=C([C@H](CCCNCCCCN[*:3])N[*:1])[*:2]; Glutaryl = O=C(CCCC(=O)[*:2])[*:1]; Suc = O=C(CCC(=O)[*:2])[*:1]; PhAc = O=C(Cc1ccccc1)*
Target: T1, human V1aR (Homo sapiens, UniProt P37288)
T1 construct: expressed in transfected cells
Assay: Agonist activity at vasopressin V1a receptors, cell-based FLIPR calcium assay
Conditions: for Emax: read-out: Efficacy Avg. (%)
Protocol: Efficacy (% MPE) is also determined as the percentage of maximal possible effect. This agonist assay utilizes cells from a stable cell line (HEK-flpin) expressing the vasopressin V1a receptor. Intracellular calcium increase in response to agonist is measured through real-time fluorescence of an intracellular calcium-sensitive dye. Cells are exposed to varying concentrations of test agonist compounds whereupon release of intracellular calcium is measured to determine the agonist potency and efficacy.
The cell line stably expresses the lacZ-Zeocin™ fusion gene and is designed for use with the Flp-In™ expression vector containing the gene of interest and the Flp recombinase expression plasmid, pOG44. The cell line contains a single integrated Flp Recombination Target (FRT) site from pFRT/lacZeo or pFRT/lacZeo2. To generate the HEK-flpin cell line stably expressing the human V1aR, the cells were co-transfected with the Flp-In™ expression vector containing the gene of interest (pcDNA5/FRT-hV1aR) and the Flp recombinase expression plasmid pOG44. Flp recombinase mediates insertion of the Flp-In™ expression vector into the genome at the integrated FRT site through site-specific DNA recombination. Stable cell lines expressing the hV1aR from the Flp-In™ expression vector can be generated by selection using hygromycin B. See Life Technologies/Invitrogen manual, Growth and Maintenance of Flp-In™ Cell Lines, Version E, published Feb.
Efficacy of this compound was set to be 100%. A stock solution of 5 mM was made up in DMSO and stored at −20° C.
HEK-flpin-hV1aR, cmcqV1aR, dV1aR and pV1aR cells were maintained in DMEM containing 10% (v/v) FBS-HI, 4 mM GlutaMAX™-I, 25 μg/mL Hygromycin B at 37° C. under 5% CO2 in a humidified atmosphere. Subculture was achieved by splitting semi-confluent cultures 1:3 to 1:6.
All compounds were made up in 100% DMSO at 10 mM stock concentrations and stored at −20° C. The compounds were allowed to thaw just before the assay. […] Typical dilution procedure of 10× final assay concentration involved a 1:100 top dilution (e.g., 2 μl Stock into 198 μl dilution medium) followed by half-log serial dilutions (e.g., 25.3 μl into 54.7 μl dilution medium supplemented with 1% DMSO (v/v)). (Dilution media consisted of phenol-red free DMEM containing 10% FBS-HI, 4 mM GlutaMAX™-I). […] The final DMSO concentration in the assay was 0.1%.
Loading Buffer was prepared by dissolving 1 vial of Calcium 4 Assay reagent in 100 mL of 1× HBSS-20 mM Hepes buffer.
The cells were loaded with Loading Buffer as follows. Cell plates were removed from the incubator and 20 μl of Loading Buffer containing probenecid (2.5 mM) was added to each well. The cells were incubated for 1 hr at 37° C. under 5% CO2 in a humidified atmosphere. The calcium image was obtained as follows.
The cell plates were transferred to FLIPR Tetra, along with a 384 well V-bottom plate pre-loaded with half-log concentrations of test compounds at 10× final test concentrations. The remaining steps of the assay were carried forward by FLIPR Tetra. A baseline reading was taken at 1-second (s) intervals for 5s followed by the addition of 5 μl of 10× compounds (test, reference, or Blank). The agonist-induced fluorescence signal was then measured for 180 s with initial 120 readings at 1-second intervals followed by 20 readings at 3-second intervals. Overall, each well in the FLIPR assay was composed of the following components in a total volume of 50 μl: 20 μl cells; 20 μl Calcium 4 Loading Buffer; […] 10× test or reference compound.

T1 sequence (P37288 whole entry): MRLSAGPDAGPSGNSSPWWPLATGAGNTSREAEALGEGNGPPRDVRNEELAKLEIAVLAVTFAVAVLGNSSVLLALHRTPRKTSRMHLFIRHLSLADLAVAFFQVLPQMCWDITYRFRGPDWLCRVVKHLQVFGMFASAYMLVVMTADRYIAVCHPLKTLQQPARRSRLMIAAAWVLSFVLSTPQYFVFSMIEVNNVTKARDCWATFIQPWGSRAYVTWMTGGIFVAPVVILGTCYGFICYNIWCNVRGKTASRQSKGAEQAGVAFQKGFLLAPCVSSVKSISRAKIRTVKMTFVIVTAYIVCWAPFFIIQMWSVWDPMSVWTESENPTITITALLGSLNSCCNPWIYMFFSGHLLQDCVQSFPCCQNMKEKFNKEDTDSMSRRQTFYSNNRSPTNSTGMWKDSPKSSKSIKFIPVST

| Structure (SMILES) | EC50 [nM] | Emax [%] |
| --- | --- | --- |
| CC[C@H](C)[C@@H]1NC(=O)[C@H](Cc2ccccc2)NC(=O)[C@@H](N)CSSC[C@@H](C(=O)N2CCC[C@H]2C(=O)N[C@@H](CCCNCCCCCCNC(=O)CCC(=O)NCCCC[C@H](NC(=O)[C@H](CCCNC(=N)N)NC(=O)[C@@H]2CCCN2C(=O)[C@H](CCCNC(=N)N)NC(=O)[C@H](CC(N)=O)NC(=O)[C@H](CCC(N)=O)NC(=O)[C@H](Cc2ccccc2)NC(=O)[C@@H](Cc2ccc(OC)cc2)NC(=O)Cc2ccccc2)C(N)=O)C(=O)NCC(N)=O)NC(=O)[C@H](CC(N)=O)NC(=O)[C@H](CCC(N)=O)NC1=O [Compound 1] (I: H-CFIQNCP[Orn((CH2)6NH2)]G-NH2 / II: PhAc-[dY](Me)FQNRPRK-NH2; disulfide I:1-I:6; linker I:8-II:8 via Suc) | 1 | 30 |
| CC[C@H](C)[C@@H]1NC(=O)[C@H](Cc2ccccc2)NC(=O)[C@@H](N)CSSC[C@@H](C(=O)N2CCC[C@H]2C(=O)N[C@@H](CCCNCCCCCNC(=O)CC[C@H](NC(=O)[C@H](CCCNC(=N)N)NC(=O)[C@@H]2CCCN2C(=O)[C@H](C)NC(=O)[C@H](CC(N)=O)NC(=O)[C@H](CCC(N)=O)NC(=O)[C@H](Cc2ccccc2)NC(=O)[C@@H](Cc2ccc(OC)cc2)NC(=O)Cc2ccccc2)C(N)=O)C(=O)NCC(N)=O)NC(=O)[C@H](CC(N)=O)NC(=O)[C@H](CCC(N)=O)NC1=O [Compound 2] | 0.69 | 52 |
| CC[C@H](C)[C@@H]1NC(=O)[C@H](Cc2ccccc2)NC(=O)[C@@H](N)CSSC[C@@H](C(=O)N2CCC[C@H]2C(=O)N[C@@H](CCCNCCCCNC(=O)CCCC(=O)NCCCC[C@H](NC(=O)[C@H](CCCNC(=N)N)NC(=O)[C@@H]2CCCN2C(=O)[C@H](CCCNC(=N)N)NC(=O)[C@H](CC(N)=O)NC(=O)[C@H](CCC(N)=O)NC(=O)[C@H](Cc2ccccc2)NC(=O)[C@@H](Cc2ccc(OC)cc2)NC(=O)Cc2ccccc2)C(N)=O)C(=O)NCC(N)=O)NC(=O)[C@H](CC(N)=O)NC(=O)[C@H](CCC(N)=O)NC1=O [Compound 3] (I: H-CFIQNCP[X3]G-NH2 / II: PhAc-[dY](Me)FQNRPRK-NH2; disulfide I:1-I:6; linker I:8-II:8 via Glutaryl) | 2.9 | 39 |
| CC[C@H](C)[C@@H]1NC(=O)[C@H](Cc2ccccc2)NC(=O)[C@@H](N)CSSC[C@@H](C(=O)N2CCC[C@H]2C(=O)N[C@@H](CCCNCCCCCCNC(=O)CC[C@H](NC(=O)[C@H](CCCNC(=N)N)NC(=O)[C@@H]2CCCN2C(=O)[C@H](C)NC(=O)[C@H](CC(N)=O)NC(=O)[C@H](CCC(N)=O)NC(=O)[C@H](Cc2ccccc2)NC(=O)[C@@H](Cc2ccc(OC)cc2)NC(=O)Cc2ccccc2)C(N)=O)C(=O)NCC(N)=O)NC(=O)[C@H](CC(N)=O)NC(=O)[C@H](CCC(N)=O)NC1=O [Compound 4] | 1.5 | 24 |
| CC[C@H](C)[C@@H]1NC(=O)[C@H](Cc2ccccc2)NC(=O)[C@@H](N)CSSC[C@@H](C(=O)N2CCC[C@H]2C(=O)N[C@@H](CCCNCCCCCCNC(=O)CCCCNC(=O)CC[C@H](NC(=O)[C@H](CCCNC(=N)N)NC(=O)[C@@H]2CCCN2C(=O)[C@H](C)NC(=O)[C@H](CC(N)=O)NC(=O)[C@H](CCC(N)=O)NC(=O)[C@H](Cc2ccccc2)NC(=O)[C@@H](Cc2ccc(OC)cc2)NC(=O)Cc2ccccc2)C(N)=O)C(=O)NCC(N)=O)NC(=O)[C@H](CC(N)=O)NC(=O)[C@H](CCC(N)=O)NC1=O [Compound 5] | 1.3 | 28 |
| CC[C@H](C)[C@@H]1NC(=O)[C@H](Cc2ccccc2)NC(=O)[C@@H](N)CSSC[C@@H](C(=O)N2CCC[C@H]2C(=O)N[C@@H](CCCNCCCCCC(=O)NCCCC[C@H](NC(=O)[C@H](CCCNC(=N)N)NC(=O)[C@@H]2CCCN2C(=O)[C@H](CCCNC(=N)N)NC(=O)[C@H](CC(N)=O)NC(=O)[C@H](CCC(N)=O)NC(=O)[C@H](Cc2ccccc2)NC(=O)[C@@H](Cc2ccc(OC)cc2)NC(=O)Cc2ccccc2)C(N)=O)C(=O)NCC(N)=O)NC(=O)[C@H](CC(N)=O)NC(=O)[C@H](CCC(N)=O)NC1=O [Compound 6] | 2.5 | 28 |
| CC[C@H](C)[C@@H]1NC(=O)[C@H](Cc2ccccc2)NC(=O)[C@@H](N)CSSC[C@@H](C(=O)N2CCC[C@H]2C(=O)N[C@@H](CCCNCCCC(=O)NCCCC[C@H](NC(=O)[C@H](CCCNC(=N)N)NC(=O)[C@@H]2CCCN2C(=O)[C@H](CCCNC(=N)N)NC(=O)[C@H](CC(N)=O)NC(=O)[C@H](CCC(N)=O)NC(=O)[C@H](Cc2ccccc2)NC(=O)[C@@H](Cc2ccc(OC)cc2)NC(=O)Cc2ccccc2)C(N)=O)C(=O)NCC(N)=O)NC(=O)[C@H](CC(N)=O)NC(=O)[C@H](CCC(N)=O)NC1=O [Compound 7] | > 10000 | 24 |
| CC[C@H](C)[C@@H]1NC(=O)[C@H](Cc2ccccc2)NC(=O)[C@@H](N)CSSC[C@@H](C(=O)N2CCC[C@H]2C(=O)N[C@@H](CCCNCCCCCC(=O)NCCCC[C@H](NC(=O)[C@H](CCCNC(=N)N)NC(=O)[C@@H]2CCCN2C(=O)[C@H](C)NC(=O)[C@H](CC(N)=O)NC(=O)[C@H](CCC(N)=O)NC(=O)[C@H](Cc2ccccc2)NC(=O)[C@@H](Cc2ccc(OC)cc2)NC(=O)Cc2ccccc2)C(N)=O)C(=O)NCC(N)=O)NC(=O)[C@H](CC(N)=O)NC(=O)[C@H](CCC(N)=O)NC1=O [Compound 8] | > 10000 | 50 |
| CC[C@H](C)[C@@H]1NC(=O)[C@H](Cc2ccccc2)NC(=O)[C@@H](N)CSSC[C@@H](C(=O)N2CCC[C@H]2C(=O)N[C@@H](CCCNCCCCCC(=O)NCCCC[C@H](NC(=O)[C@H](CCCNC(=N)N)NC(=O)[C@@H]2CCCN2C(=O)[C@H](CC(C)C)NC(=O)[C@H](CC(N)=O)NC(=O)[C@H](CCC(N)=O)NC(=O)[C@H](Cc2ccccc2)NC(=O)[C@@H](Cc2ccc(OC)cc2)NC(=O)Cc2ccccc2)C(N)=O)C(=O)NCC(N)=O)NC(=O)[C@H](CC(N)=O)NC(=O)[C@H](CCC(N)=O)NC1=O [Compound 9] | > 10000 | 34 |
| CC[C@H](C)[C@@H]1NC(=O)[C@H](Cc2ccccc2)NC(=O)[C@@H](N)CSSC[C@@H](C(=O)N2CCC[C@H]2C(=O)N[C@@H](CCCNCCCCNC(=O)CC[C@H](NC(=O)[C@H](CCCNC(=N)N)NC(=O)[C@@H]2CCCN2C(=O)[C@H](CCCNC(=N)N)NC(=O)[C@H](CC(N)=O)NC(=O)[C@H](CCC(N)=O)NC(=O)[C@H](Cc2ccccc2)NC(=O)[C@@H](Cc2ccc(OC)cc2)NC(=O)Cc2ccccc2)C(N)=O)C(=O)NCC(N)=O)NC(=O)[C@H](CC(N)=O)NC(=O)[C@H](CCC(N)=O)NC1=O [Compound 10] | > 10000 | 26 |
| CC[C@H](C)[C@@H]1NC(=O)[C@H](Cc2ccccc2)NC(=O)[C@@H](N)CSSC[C@@H](C(=O)N2CCC[C@H]2C(=O)N[C@@H](CCCNCCCCCNC(=O)CC[C@H](NC(=O)[C@H](CCCNC(=N)N)NC(=O)[C@@H]2CCCN2C(=O)[C@H](CO)NC(=O)[C@H](CC(N)=O)NC(=O)[C@H](CCC(N)=O)NC(=O)[C@H](Cc2ccccc2)NC(=O)[C@@H](Cc2ccc(OC)cc2)NC(=O)Cc2ccccc2)C(N)=O)C(=O)NCC(N)=O)NC(=O)[C@H](CC(N)=O)NC(=O)[C@H](CCC(N)=O)NC1=O [Compound 11] | 2.2 | 51 |
| CC[C@H](C)[C@@H]1NC(=O)[C@H](Cc2ccccc2)NC(=O)[C@@H](N)CSSC[C@@H](C(=O)N2CCC[C@H]2C(=O)N[C@@H](CCCNCCCCCNC(=O)CC[C@H](NC(=O)[C@H](CCCNC(=N)N)NC(=O)[C@@H]2CCCN2C(=O)[C@H](CCCCN)NC(=O)[C@H](CC(N)=O)NC(=O)[C@H](CCC(N)=O)NC(=O)[C@H](Cc2ccccc2)NC(=O)[C@@H](Cc2ccc(OC)cc2)NC(=O)Cc2ccccc2)C(N)=O)C(=O)NCC(N)=O)NC(=O)[C@H](CC(N)=O)NC(=O)[C@H](CCC(N)=O)NC1=O [Compound 12] | 2.3 | 39 |
